Experimental data published in patent US20140005163A1 (NOVARTIS AG, priority 2010, published 2014).
pIC50: −log10 of the molar value.

Experiments:
mTOR = target: T1, mTOR (Homo sapiens, UniProt P42345); assay: Biochemical assay for m-TOR by TR-FRET; details: 8 μM ATP, 400 nM GFP-4EBP1, 0.5 nM mTOR
T1 construct: purchased Invitrogen Corporation (Carlsbad/CA, USA) PV4753
Procedure, shortened: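 Steps: ATP (8 μM final) plus GFP-4EBP1 (400 nM final) combined with mTOR (0.5 nM final), incubated at rt; buffer HEPES pH 7.5 with 10 mM MnCl2, NaCl, EGTA, DTT. Then stopped with EDTA/Tb3+-anti-p4EBP1 pT46 Ab (0.5 nM). Plates read after 15 min.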

PI3K gamma = target: T2, PI3K gamma (Homo sapiens, UniProt P48736); assay: PI3K gamma kinase assay (Kinase-Glo luminescence); assay type: biochemical
T2 construct: His tag (C); made in house; host or cells: baculovirus (pVL1393); Tn5 or TiniPro insect cells; construct from Roger Williams lab, MRC LMB
T2 sequence (P48736 144-1102 limits assumed): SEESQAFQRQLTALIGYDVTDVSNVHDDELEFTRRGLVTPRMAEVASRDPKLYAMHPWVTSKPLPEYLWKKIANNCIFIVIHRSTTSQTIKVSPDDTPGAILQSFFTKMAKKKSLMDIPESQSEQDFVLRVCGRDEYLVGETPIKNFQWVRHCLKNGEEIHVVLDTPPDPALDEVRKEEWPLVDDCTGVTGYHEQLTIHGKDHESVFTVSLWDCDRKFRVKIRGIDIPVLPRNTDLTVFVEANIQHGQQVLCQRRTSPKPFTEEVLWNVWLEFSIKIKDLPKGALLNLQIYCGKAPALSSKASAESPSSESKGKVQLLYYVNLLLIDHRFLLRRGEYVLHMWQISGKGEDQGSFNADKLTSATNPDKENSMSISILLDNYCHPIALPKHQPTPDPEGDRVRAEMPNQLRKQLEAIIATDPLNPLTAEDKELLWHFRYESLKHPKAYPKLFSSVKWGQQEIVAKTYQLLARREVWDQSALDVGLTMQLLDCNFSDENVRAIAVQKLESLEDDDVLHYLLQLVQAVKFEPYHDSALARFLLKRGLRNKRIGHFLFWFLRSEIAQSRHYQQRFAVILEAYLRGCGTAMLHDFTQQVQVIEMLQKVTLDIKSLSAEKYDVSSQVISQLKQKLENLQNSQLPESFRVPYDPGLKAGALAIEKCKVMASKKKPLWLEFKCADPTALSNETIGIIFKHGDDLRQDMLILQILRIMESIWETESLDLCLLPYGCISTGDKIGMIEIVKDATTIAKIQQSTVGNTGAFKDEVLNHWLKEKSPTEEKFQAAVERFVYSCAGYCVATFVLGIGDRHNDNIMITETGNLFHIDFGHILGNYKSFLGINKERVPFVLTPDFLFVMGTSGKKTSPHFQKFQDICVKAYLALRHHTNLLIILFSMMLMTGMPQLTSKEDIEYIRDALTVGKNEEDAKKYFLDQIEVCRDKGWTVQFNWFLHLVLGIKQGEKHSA
Procedure, shortened: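 Luminescent ATP-depletion (Kinase-Glo) assay with 150 nM PI3Kγ, 1 μM ATP and 10 μg/mL phosphatidylinositol in 10 mM Tris-HCl pH 7.5, 3 mM MgCl2, 50 mM NaCl, 0.05% CHAPS, 1 mM DTT; 120 min at room temperature. Eight-point dilutions; IC50 by four-parameter logistic fit.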

[1] = tested on: S6 Ribosomal Protein phosphorylation Ser235/236 in TSC1 null mouse embryo fibroblast (MEF) cells; assay: Reverse protein array assay, S6 Ribosomal Protein phosphorylation Ser235/236 in TSC1 null MEF cells; assay type: cell-based; details: 1 h, pS6 ribosomal protein Ser235/236, 60 minutes incubation, read-out: p-S6 IC50
Procedure, shortened: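 TSC1−/− MEFs, seeded and held ≥20 h at 37 °C/5% CO2, were exposed to 8-step serial compound dilutions (0.02% DMSO final; DMSO vehicle control) for 60 min at 37 °C. Cells were then lysed on ice for 10 min and lysates spotted onto reverse protein array chips.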

T1 sequence (P42345 1360-2549 limits assumed): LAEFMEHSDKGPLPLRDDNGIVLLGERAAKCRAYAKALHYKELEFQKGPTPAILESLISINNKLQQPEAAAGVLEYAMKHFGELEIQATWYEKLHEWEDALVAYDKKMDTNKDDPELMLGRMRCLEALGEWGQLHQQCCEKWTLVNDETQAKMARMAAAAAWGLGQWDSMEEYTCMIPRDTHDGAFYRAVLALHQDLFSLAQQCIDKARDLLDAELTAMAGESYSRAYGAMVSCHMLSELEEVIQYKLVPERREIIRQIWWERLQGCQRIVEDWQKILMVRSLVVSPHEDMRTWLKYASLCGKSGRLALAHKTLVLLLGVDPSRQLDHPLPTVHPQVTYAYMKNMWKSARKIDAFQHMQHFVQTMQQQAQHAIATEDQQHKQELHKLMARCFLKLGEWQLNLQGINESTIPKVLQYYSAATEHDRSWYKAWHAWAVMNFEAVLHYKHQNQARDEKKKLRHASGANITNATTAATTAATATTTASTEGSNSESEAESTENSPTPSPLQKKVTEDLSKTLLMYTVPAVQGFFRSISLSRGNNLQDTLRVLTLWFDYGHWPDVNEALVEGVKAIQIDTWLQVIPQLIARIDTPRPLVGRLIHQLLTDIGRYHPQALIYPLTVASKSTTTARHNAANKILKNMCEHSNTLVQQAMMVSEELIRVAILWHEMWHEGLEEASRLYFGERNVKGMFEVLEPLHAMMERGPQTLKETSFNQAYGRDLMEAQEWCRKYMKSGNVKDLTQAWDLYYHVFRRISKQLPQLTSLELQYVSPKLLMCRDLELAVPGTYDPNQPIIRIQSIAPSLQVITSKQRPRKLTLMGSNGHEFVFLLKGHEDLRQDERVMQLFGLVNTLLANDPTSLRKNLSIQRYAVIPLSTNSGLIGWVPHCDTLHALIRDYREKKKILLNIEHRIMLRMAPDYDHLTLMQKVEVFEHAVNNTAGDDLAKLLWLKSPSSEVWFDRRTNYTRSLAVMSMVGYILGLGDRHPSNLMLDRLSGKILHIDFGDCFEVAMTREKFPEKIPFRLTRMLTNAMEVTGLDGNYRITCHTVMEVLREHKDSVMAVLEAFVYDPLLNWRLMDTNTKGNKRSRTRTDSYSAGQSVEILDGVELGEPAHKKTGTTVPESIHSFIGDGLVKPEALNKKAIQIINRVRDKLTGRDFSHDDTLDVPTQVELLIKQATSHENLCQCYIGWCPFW

SMILES | pIC50 (mTOR) | pIC50 (PI3K gamma) | pIC50 [1]
CNS(=O)(=O)c1cccc(-c2ccc3ncc4c(c3c2)n(-c2cn(C)nc2C)c(=O)n4C)c1 [Example 39, 3-[1-(1,3-Dimethyl-1H-pyrazol-4-yl)-3-methyl-2-oxo-2,3-dihydro-1H-imidazo[4,5-c]quinolin-8-yl]-N-methyl-benzenesulfonamide] | 7.16 | 7.12 | 7.43
CCn1cc(-n2c(=O)n(C)c3cnc4ccc(-c5ccc(OC)c(OC)c5)nc4c32)c(C)n1 [Example 254, 8-(3,4-Dimethoxy-phenyl)-1-(1-ethyl-3-methyl-1H-pyrazol-4-yl)-3-methyl-1,3-dihydro-1,3,5,9-tetraaza-cyclopenta[a]naphthalen-2-one] | 7.19 | 6.84 | 7.24
Cc1nn(C)cc1-n1c(=O)n(C)c2cnc3ccc(-c4ccc(-c5ncc[nH]5)cc4)cc3c21 [Example 77, 1-(1,3-Dimethyl-1H-pyrazol-4-yl)-8-[4-(1H-imidazol-2-yl)-phenyl]-3-methyl-1,3-dihydro-imidazo[4,5-c]quinolin-2-one] | > 8.52 | 7.12 | 8.30
Cc1nn(C)cc1-n1c(=O)n(C)c2cnc3ccc(-c4cccc(NS(C)(=O)=O)c4)cc3c21 [Example 47, N-{3-[1-(1,3-dimethyl-1H-pyrazol-4-yl)-3-methyl-2-oxo-2,3-dihydro-1H-imidazo[4,5-c]quinolin-8-yl]-phenyl}-methanesulfonamide] | 6.55 | 6.15 | 6.90

Continued, in another order:

pIC50 (mTOR) | pIC50 (PI3K gamma) | SMILES | pIC50 [1]
7.96 | 6.82 | CN(C)c1ccc(-c2ccc3ncc4c(c3c2)n(-c2cn(C)nc2Cl)c(=O)n4C)cn1 [Example 4.9, 1-(3-Chloro-1-methyl-1H-pyrazol-4-yl)-8-(6-dimethylamino-pyridin-3-yl)-3-methyl-1,3-dihydro-imidazo[4,5-c]quinolin-2-one] | 8.70
7.92 | 6.93 | COc1ccc(-c2ccc3ncc4c(c3c2)n(-c2cn(C)nc2C)c(=S)n4C)cc1OC [Example 128.2, 8-(3,4-Dimethoxy-phenyl)-1-(1,3-dimethyl-1H-pyrazol-4-yl)-3-methyl-1,3-dihydro-imidazo[4,5-c]quinoline-2-thione] | 9.00
7.16 | 6.85 | Cc1nn(C)cc1-n1c(=S)n(C)c2cnc3ccc(-c4cccnc4)cc3c21 [Example 128.1, 1-(1,3-Dimethyl-1H-pyrazol-4-yl)-3-methyl-8-pyridin-3-yl-1,3-dihydro-imidazo[4,5-c]quinoline-2-thione] | 8.05
